{"source": "patent US20150141383A1", "about": "“Darunavir Polymorph and Process for Preparation Thereof” (Cipla Limited, priority 2010, published 2015)", "assay": "Hygroscopicity study as per British Pharmacopoeia method", "type": "physicochemical", "method": "Darunavir Hydrate From C was subjected to hygroscopicity study and the test was performed as per the method given in British Pharmacopoeia.\nA weight change of 0.0003 g was observed which correspond to 0.06% weight change. As per the test a sample is of non-hygroscopic nature if the weight change observed is less than 0.2%.", "data": [{"smiles": "CC(C)CN(C[C@@H](O)[C@H](Cc1ccccc1)NC(=O)O[C@H]1CO[C@H]2OCC[C@H]21)S(=O)(=O)c1ccc(N)cc1", "note": "[darunavir hydrate Form C, (3R,3aS,6aR)-hexahydrofuro[2,3-b]furan-3-yl(1S,2R)-3-[[(4-aminophenyl)sulfonyl](isobutyl)amino]-1-benzyl-2-hydroxypropylcarbamate]", "values": [{"measurement": "hygroscopic nature (non-hygroscopic if weight change less than 0.2%)", "setting": "25° C. and 85% RH, 24 hours", "result": "non-hygroscopic"}, {"measurement": "weight change", "setting": "57.6456 g exposed at 25° C. and 85% RH for 24 hours", "result": 0.0003, "unit": "g"}, {"measurement": "weight change", "setting": "exposed at 25° C. and 85% RH for 24 hours", "result": 0.06, "unit": "%"}]}]}
